Like-named read-outs stand apart in the source and are kept apart here.
Legend:
[1] = system: MEK; settings: cited from earlier work
[2] = system: A375 cells; experiment: cell cycle measurement / apoptosis induction (PI staining, flow cytometer); format: cell-based
Method: (§1) A cell cycle measurement was performed by propidium iodide (PI) staining as described below. First, cells were subjected to drug treatment after 24 hours from seeding thereof in a 6-well plate. After collecting the culture medium and trypsinized cells, they were subjected to centrifugation at 1,000 g for 5 minutes, and the supernatant was removed. 1 mL of PBS^− was added to suspend the cells. The suspension was transferred to a 1.5-mL tube and then subjected to centrifugation treatment at 13,000 g for 1 minute, and the supernatant was removed. 200 μL of PBS^− was added to the residue to suspend the cells, and 1 mL of ice-cold 70% ethanol was added. Then, the cells were vortexed and immobilized at 4° C.
(§2) The immobilized cells were subjected to centrifugation at 1,000 g for 5 minutes, and the supernatant was removed. 1 mL of a PBS^− solution containing 10 μg/mL of RNase was added to the residue to suspend the cells, which was left to stand still at 37° C. for 20 minutes. After that, centrifugation was performed for 5 minutes, and then the supernatant was removed. […] of a PBS^− solution containing PI (50 μg/mL, manufactured by Wako) was added to the residue to suspend the cells. The total volume thereof was passed through a nylon mesh (φ=42 μm) and used as a sample. An intracellular DNA content was detected with PMT4 of a flow cytometer (manufactured by Beckman Coulter) to measure a cell cycle.
(§3) 48 hours after the drug treatment, the cells were collected and subjected to ethanol fixation and PI staining to measure a DNA content with a flow cytometer. […] In addition, the expression amount of a target molecule being phosphorylated was calculated compared to the expression amount of a target molecule to evaluate the influence on a cell cycle at such a concentration of inhibiting the expression of the phosphorylation of the target molecule by 95% or more.
(§4) 48 hours after the drug treatment, the cells were collected and subjected to ethanol fixation and PI staining to measure a DNA content with a flow cytometer. In addition, in order to measure target molecule inhibitory activity in the drug-treated cells, the expression of ERK, phosphorylated ERK, MEK, phosphorylated MEK, and actin in the cells was evaluated by western blotting 24 hours after the drug treatment. In addition, the expression amount of a target molecule being phosphorylated was calculated compared to the expression amount of a target molecule to evaluate the influence of each inhibitor on a cell cycle at such a concentration that the expression of the phosphorylation of the target molecule was inhibited by 95% or more.

[3] = system: DLD-1 cells; experiment: as above; format: cell-based; settings: at the concentration that completely inhibited phosphorylation of ERK, 48 hours
Method: as §1, §2, §3, §4

[4] = system: HCT_116 cells; experiment: as above; format: cell-based; settings: at the concentration that completely inhibited phosphorylation of ERK (MEK and ERK for SB590885), 48 hours
Method: as §1, §2, §3, §4

[5] = system: HT29 cells; experiment: as above; format: cell-based; settings: at the concentration that completely inhibited phosphorylation of ERK, 48 hours
Method: as §1, §2, §3, §4

[6] = system: SW48 cells; experiment: as above; format: cell-based; settings: at the concentration that completely inhibited phosphorylation of ERK, 48 hours
Method: as §1, §2, §3, §4

[7] = system: malignant melanoma having an active BRAF mutation; settings: patients with malignant melanoma having an active BRAF mutation, clinical trial; cited from earlier work
[8] = system: HCT_116 cells; experiment: cell growth-suppressive activity test; format: cell-based; settings: 2D and 3D culture, 72 hours, CellTiter-Glo
Method: (§5) A cell growth-suppressive activity test was performed in both of two-dimensional culture and three-dimensional culture. First, a plate for three-dimensional culture was produced. Specifically, poly(2-hydroxyethyl methacrylate) (hereinafter abbreviated as poly-HEMA, manufactured by Sigma) was added to 95% ethanol so that the concentration was 5 mg/mL, and dissolved therein at 37° C. overnight. The solution was used as a poly-HEMA solution. The solution was loaded into a 96-well plate (manufactured by Nunc) at 50 μL/well. The plate was dried at 37° C. to produce a plate for three-dimensional culture coated with poly-HEMA.
(§6) The two-dimensional culture (hereinafter sometimes referred to as 2D culture) and the three-dimensional culture (hereinafter sometimes referred to as 3D culture) were performed by seeding the cells in a 96-well plate at 1×10^3 cells/150 μL/well and 2×10^3 cells/75 μL/well, respectively, and performing drug treatment on the following day. The total volume was set to 200 μL in the two-dimensional culture, and the total volume was set to 100 μL in the three-dimensional culture. Cell growth was measured by measuring intracellular ATP amounts at the time of the drug treatment and 72 hours after the drug treatment. Specifically, after the removal of the culture medium at 100 μL/well, CellTiter-Glo (manufactured by Promega) was added at 50 μL/well in the two-dimensional culture, and CellTiter-Glo was added at 50 μL/well in the three-dimensional culture. After the addition, the plate was shaken with a shaker for 2 minutes and left to stand still at room temperature for 10 minutes. The total volume of each well was transferred to a white 96-well plate (manufactured by Nunc) and measured for its light emission intensity with a Wallac 1420 multilabel counter (manufactured by Perkin Elmer). From the resultant light emission amount, a growth ratio (Growth (%)) relative to a non-drug-treated sample after 72 hours was determined using the following mathematical formula 1 and mathematical formula 2.

[9] = system: SK-MEL-1 cells; experiment: cell growth-suppressive activity test; format: cell-based; settings: 2D and 3D culture, 72 hours, CellTiter-Glo
Method: as §5, §6

[10] = system: SW48 cells; experiment: cell growth-suppressive activity test; format: cell-based; settings: 2D and 3D culture, 72 hours, CellTiter-Glo
Method: as §5, §6

[11] = system: colo-201 cells; experiment: cell growth-suppressive activity test; format: cell-based; settings: 2D and 3D culture, 72 hours, CellTiter-Glo
Method: as §5, §6

[12] = system: colo-205 cells; experiment: cell growth-suppressive activity test; format: cell-based; settings: 2D and 3D culture, 72 hours, CellTiter-Glo
Method: as §5, §6

[13] = system: 24 kinds of cell lines; settings: GI50
Method: as §5
The two-dimensional culture (hereinafter sometimes referred to as 2D culture) and the three-dimensional culture (hereinafter sometimes referred to as 3D culture) were performed by seeding the cells in a 96-well plate at 1×10^3 cells/150 μL/well and 2×10^3 cells/75 μL/well, respectively, and performing drug treatment on the following day. […] Cell growth was measured by measuring intracellular ATP amounts at the time of the drug treatment and 72 hours after the drug treatment. […] The total volume of each well was transferred to a white 96-well plate (manufactured by Nunc) and measured for its light emission intensity with a Wallac 1420 multilabel counter (manufactured by Perkin Elmer). […]

[14] = system: phosphorylation of MEK and ERK; experiment: MEK and ERK phosphorylation inhibition by western blotting; format: cell-based; settings: any of the cell lines (A375, HT29, DLD-1, HCT_116, SW48), 0.3-10 μM
Method: as §4

Cn1cnc2c(F)c(Nc3ccc(Br)cc3Cl)c(C(=O)NOCCO)cc21 [AZD6244]
IC50 ([1]; non-ATP-competitive manner, read-out: MEK inhibition, IC50 value): ~0.012 µM

O=C(NOCC1CC1)c1ccc(F)c(F)c1Nc1ccc(I)cc1Cl [PD184352]
apoptosis induction / influence on cell cycle (sub-G1 population) ([2]; at the concentration that completely inhibited phosphorylation of ERK (MEK and ERK for SB590885), 48 hours): remarkable G1 arrest was induced but no apoptosis was induced
apoptosis induction ([2]; concentration higher than that completely inhibiting phosphorylation of ERK): Apoptosis was induced
apoptosis induction / influence on cell cycle (sub-G1 population) [3]: did not exhibit any particular influence
apoptosis induction / influence on cell cycle (sub-G1 population) [4]: apoptosis was induced
apoptosis induction / influence on cell cycle (sub-G1 population) [5]: remarkable G1 arrest was induced but no apoptosis was induced
apoptosis induction / influence on cell cycle (sub-G1 population) [6]: apoptosis was induced

O=C(NOC[C@H](O)CO)c1ccc(F)c(F)c1Nc1ccc(I)cc1F [PD0325901]
clinical response, total of a partial response and a complete response [7]: about 10%

N#CC(=C(/N)Sc1ccccc1N)/C(C#N)=C(\N)Sc1ccccc1N [U0126]
sensitivity in growth-suppressive activity test (from GI50) [8]: high sensitivity
sensitivity in growth-suppressive activity test (from GI50) [9]: high sensitivity
sensitivity in growth-suppressive activity test (from GI50) [10]: high sensitivity
sensitivity in growth-suppressive activity test (from GI50) [11]: high sensitivity
sensitivity in growth-suppressive activity test (from GI50) [12]: high sensitivity
tendency of drug sensitivity over the cell line panel compared with SMK-17 [13]: 23 out of the 24 kinds of cell lines exhibited a tendency of drug sensitivity similar to that in the case of SMK-17

CNC(=O)c1cc(Oc2ccc(NC(=O)Nc3ccc(Cl)c(C(F)(F)F)c3)cc2)ccn1 [sorafenib]
inhibitory effect on the phosphorylation of MEK and ERK [14]: did not provide complete inhibitory effects

From US10139415B2, “Method for predicting responsiveness to compound inhibiting MAPK signal transduction pathway” (DAIICHI SANKYO COMPANY, LIMITED, priority 2013, dated 2018)
